According to US8163756B2 (priority 2004, dated 2012):

Columns and labels:
Assay type in all cases: biochemical
KDR kinase = KDR kinase (Homo sapiens, UniProt P35968, DEL940-989/E990V); assay: KDR kinase assay K1 (pyruvate kinase/lactate dehydrogenase coupled, spectrophotometric); settings: Method K1; read-out: KDR Data (IC50)
Procedure: (§1) IC50 values were calculated from a series of percent inhibition values determined at a range of inhibitor concentrations using software routines as implemented in the GraphPad Prism software package.

B-Raf(V599E) kinase = B-Raf(V599E) kinase (Homo sapiens, UniProt P15056, V600E); assay: B-Raf(V599E) kinase assay B1 (construct 1, MEK1 substrate, coupled spectrophotometric)
Procedure: The test compounds were incubated with the reaction mixtureat 30° C. for 2 h. […] The reaction rate was calculated using the […] time frame. […] IC50 values were calculated from a series of percent inhibition values determined at a range of inhibitor concentrations using software routines as implemented in the GraphPad Prism software package.

[1] = molecular target: phosphorylated p-38-alpha kinase (Homo sapiens, UniProt Q16539); assay: P-38 alpha kinase assay P1 (coupled spectrophotometric, 2 h pre-incubation); settings: method P1 (2 h pre-incubation); read-out: P-38 Data
Abl kinase = molecular target: T1, Abl kinase (Homo sapiens, UniProt P00519); assay: Abl kinase assay A1 (pyruvate kinase/lactate dehydrogenase coupled, spectrophotometric); settings: Method A1; read-out: Abl Data (IC50)
T1 sequence (P00519 229-512): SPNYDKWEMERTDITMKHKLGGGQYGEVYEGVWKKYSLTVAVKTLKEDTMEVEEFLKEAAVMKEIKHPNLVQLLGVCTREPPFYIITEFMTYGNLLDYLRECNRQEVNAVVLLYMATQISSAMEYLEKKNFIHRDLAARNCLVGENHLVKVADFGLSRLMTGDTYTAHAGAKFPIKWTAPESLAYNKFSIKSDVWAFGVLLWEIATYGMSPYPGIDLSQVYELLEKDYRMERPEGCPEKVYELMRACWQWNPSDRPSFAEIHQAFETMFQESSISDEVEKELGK
Procedure: as §1

KDR kinase, sequence (P35968 with tags, fused parts or gaps DEL940-989/E990V): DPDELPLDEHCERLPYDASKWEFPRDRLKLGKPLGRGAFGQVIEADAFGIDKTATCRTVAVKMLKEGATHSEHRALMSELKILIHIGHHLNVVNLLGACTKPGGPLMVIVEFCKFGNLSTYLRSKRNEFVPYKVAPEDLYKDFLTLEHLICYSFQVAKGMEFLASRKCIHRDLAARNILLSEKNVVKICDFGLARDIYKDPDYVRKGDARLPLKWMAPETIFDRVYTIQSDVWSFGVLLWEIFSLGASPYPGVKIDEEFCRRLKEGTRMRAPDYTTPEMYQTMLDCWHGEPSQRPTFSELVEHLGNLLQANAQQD
B-Raf(V599E) kinase, sequence (P15056 with tags, fused parts or gaps V600E): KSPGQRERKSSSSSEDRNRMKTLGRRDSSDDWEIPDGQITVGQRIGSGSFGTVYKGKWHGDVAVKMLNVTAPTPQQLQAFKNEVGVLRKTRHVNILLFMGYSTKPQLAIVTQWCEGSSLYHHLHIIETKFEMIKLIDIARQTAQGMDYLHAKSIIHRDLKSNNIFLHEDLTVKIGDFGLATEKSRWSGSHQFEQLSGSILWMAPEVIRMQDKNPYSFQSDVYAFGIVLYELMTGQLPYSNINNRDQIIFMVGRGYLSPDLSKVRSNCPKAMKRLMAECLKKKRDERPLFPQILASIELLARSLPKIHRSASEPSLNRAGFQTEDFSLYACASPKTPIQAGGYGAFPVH
phosphorylated p-38-alpha kinase, sequence (Q16539 1-360 isoform Q16539-2): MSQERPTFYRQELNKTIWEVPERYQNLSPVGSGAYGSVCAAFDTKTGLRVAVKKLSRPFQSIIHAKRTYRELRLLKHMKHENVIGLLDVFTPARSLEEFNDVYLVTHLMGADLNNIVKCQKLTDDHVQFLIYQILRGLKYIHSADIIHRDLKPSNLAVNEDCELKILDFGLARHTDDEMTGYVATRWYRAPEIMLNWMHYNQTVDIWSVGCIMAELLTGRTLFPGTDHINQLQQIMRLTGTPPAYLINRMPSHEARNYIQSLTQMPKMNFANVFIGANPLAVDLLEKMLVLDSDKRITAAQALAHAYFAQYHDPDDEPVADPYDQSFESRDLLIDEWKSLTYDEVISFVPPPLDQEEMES

| SMILES | IC50 (KDR kinase) [nM] | IC50 (B-Raf(V599E) kinase) [nM] | IC50 [1] [nM] | IC50 (Abl kinase) [nM] |
| --- | --- | --- | --- | --- |
| CC(C)(C)c1cc(NC(=O)Nc2cccc(Cl)c2)n(-c2cccc(CN)c2)n1 [Example 227, 1-{1-[3-(aminomethyl)phenyl]-3-t-butyl-1H-pyrazol-5-yl}-3-(3-chloro-phenyl)urea] | 9300 | 61 |  |  |
| CC(C)(C)c1cc(NC(=O)Nc2cccc(Cl)c2Cl)n(-c2ccc(CC(=O)N3CCS(=O)(=O)CC3)cc2)n1 [Example 495] | 1500 | 55 |  |  |
| CC1(O)CCN(C(=O)Cc2ccc(-n3nc(C(C)(C)C)cc3NC(=O)Nc3cccc(Cl)c3Cl)cc2)CC1 [Example 496, 1-(3-t-butyl-1-{4-[2-(4-hydroxy-4-methylpiperidin-1-yl)-2-oxoethyl]phenyl}-1H-pyrazol-5-yl)-3-(2,3-dichlorophenyl)urea] | 470 | 26 | 5 |  |
| COc1ccc(-n2nc(C(C)(C)C)cc2NC(=O)Nc2cccc(F)c2F)cc1 [Example 241, 1-[3-t-butyl-1-(4-methoxyphenyl)-1H-pyrazol-5-yl]-3-(2,3-difluorophenyl)urea] | 570 | 24 | 220 |  |
| CC(C)(C)c1cc(NC(=O)Nc2cccc(Cl)c2Cl)n(-c2ccc3c(c2)CCN3)n1 [Example 106, 1-(3-t-butyl-1-(indolin-5-yl)-1H-pyrazol-5-yl)-3-(2,3-dichlorophenyl)urea] | 120 | 3.6 | 12 |  |
| CC(C)(C)c1cc(NC(=O)Nc2cccc(Cl)c2Cl)n(-c2cccc(Cn3c(=O)[nH]n(-c4ccccc4)c3=O)c2)n1 [Example 273, 1-(3-t-butyl-1-{3-[(3,5-dioxo-1-phenyl-1,2,4-triazolidin-4-yl)methyl]phenyl}-1H-pyrazol-5-yl)-3-(2,3-dichlorophenyl)urea] | 1700 | 8.7 | 34 |  |
| CC(C(=O)O)c1ccc(-n2nc(C(C)(C)C)cc2NC(=O)Nc2cccc(Cl)c2Cl)cc1 (stereo not shown) [Example 202, 2-(4-(3-t-butyl-5-(3-(2,3-dichlorophenyl)ureido)-1H-pyrazol-1-yl)phenyl)propanoic acid] | 230 |  | 12 |  |
| CC(C)(C)c1cc(NC(=O)Nc2cccc(Cl)c2Cl)n(-c2ccc3c(c2)CCN3S(=O)(=O)C(F)(F)F)n1 [Example 201, 1-(3-t-butyl-1-(1-(trifluoromethylsulfonyl)indolin-5-yl)-1H-pyrazol-5-yl)-3-(2,3-dichlorophenyl)urea] | 130 |  | 150 |  |
| CC(C)(C)c1cc(NC(=O)Nc2cccc(Cl)c2Cl)n(-c2ccc3c(c2)CCN(S(C)(=O)=O)CC3)n1 [Example 336, 1-(3-t-butyl-1-(3-(methylsulfonyl)-2,3,4,5-tetrahydro-1H-benzo[d]azepin-7-yl)-1 H-pyrazol-5-yl)-3-(2,3-dichlorophenyl)urea] | 170 | 2 | 11 |  |
| CC(C)(C)c1cc(NC(=O)Nc2ccccc2)n(-c2ccc3c(c2)CCC(=O)N3)n1 [Example 319, 1-(3-t-butyl-1-(2-oxo-1,2,3,4-tetrahydro-quinolin-6-yl)-1H-pyrazol-5-yl)-3-phenylurea] | 4300 | 32 |  |  |
| CC(C)(C)c1cc(NC(=O)NC2CCCCC2)n(-c2ccc3c(c2)CCC(=O)N3)n1 [Example 318, 1-(3-t-butyl-1-(2-oxo-1,2,3,4-tetrahydroquinolin-6-yl)-1H-pyrazol-5-yl)-3-cyclohexylurea] | 10100 | 29 |  |  |
| CC(C)(C)c1cc(NC(=O)Nc2ccsc2)n(-c2ccc3c(c2)CCC(=O)N3)n1 [Example 316, 1-(3-t-butyl-1-(2-oxo-1,2,3,4-tetrahydro-quinolin-6-yl)-1H-pyrazol-5-yl)-3-(thiophen-3-yl)urea] | 12900 | 66 |  |  |
| CC(C)(C)c1cc(NC(=O)Nc2cccc(F)c2F)n(-c2ccc3c(c2)CCN3)n1 [Example 307, 1-(3-t-butyl-1-(indolin-5-yl)-1H-pyrazol-5-yl)-3-(2,3-difluorophenyl)urea] | 720 | 10 |  |  |
| CC(C)(C)c1cc(NC(=O)Nc2cccc(Cl)c2Cl)n(-c2cccc(C(=N)NO)c2)n1 [Example 43, 1-{1-[3-(N-hydroxycarbamimidoyl)phenyl]-3-t-butyl-1H-pyrazol-5-yl}-3-(2,3-dichlorophenyl)-urea] | 360 | 4.3 | 13 |  |
| CC(C)(C)c1cc(NC(=O)Nc2cc(F)c(F)cc2F)n(-c2cc(CNC(N)=O)c3ccccc3c2)n1 [Example 297] | 270 | 3.2 |  |  |
| CC(=O)c1cc(-n2nc(C(C)(C)C)cc2NC(=O)Nc2cccc(Cl)c2Cl)cc2ccccc12 [Example 100, 1-(1-(4-acetylnaphthalen-2-yl)-3-t-butyl-1H-pyrazol-5-yl)-3-(2,3-dichlorophenyl)urea] |  | 6.9 | 5 | 150 |

| SMILES | IC50 (KDR kinase) [nM] | IC50 (B-Raf(V599E) kinase) [nM] | IC50 [1] [nM] | IC50 (Abl kinase) [nM] |
| --- | --- | --- | --- | --- |
| CC(C)(C)c1cc(NC(=O)Nc2cc(F)c(F)cc2F)n(-c2cccc(C(=N)N)c2)n1 [Example 214, 1-(3-t-butyl-1-(3-carbamimidoylphenyl)-1H-pyrazol-5-yl)-3-(2,4,5-trifluorophenyl)urea] | 840 |  |  |  |
| CC(C)(C)c1cc(NC(=O)Nc2cccc(F)c2F)n(-c2cccc(CO)c2)n1 [Example 220, 1-{3-t-butyl-1-[3-(hydroxymethyl)phenyl]-1H-pyrazol-5-yl}-3-(2,3-difluorophenyl)urea] | 950 | 33 |  |  |
| CC(C)(C)c1cc(NC(=O)Nc2cc(F)c(F)cc2F)n(-c2cccc(C#N)c2)n1 [Example 207, 1-(3-t-butyl-1-(3-cyanophenyl)-1H-pyrazol-5-yl)-3-(2,4,5-trifluorophenyl)urea] | 340 |  |  |  |
| CC(C(N)=O)c1ccc(-n2nc(C(C)(C)C)cc2NC(=O)Nc2cccc(Cl)c2Cl)cc1 (stereo not shown) [Example 203, 1-(1-(4-(1-amino-1-oxopropan-2-yl)phenyl)-3-t-butyl-1H-pyrazol-5-yl)-3-(2,3-dichlorophenyl)urea] | 160 |  | 17 |  |
| CC(C)(C)c1cc(NC(=O)Nc2cccc(Cl)c2)n(-c2cccc(CCN)c2)n1 [Example 257, 1-{1-[3-(2-aminoethyl)phenyl]-3-t-butyl-1H-pyrazol-5-yl}-3-(3-chlorophenyl)urea] | 6600 | 62 |  |  |
| CC(C)(C)c1cc(NC(=O)Nc2ccc(Cl)cc2)n(-c2cc(CN)c3ccccc3c2)n1 [Example 68, 1-[1-(4-(aminomethyl)naphthalen-2-yl)-3-t-butyl-1H-pyrazol-5-yl]-3-(4-chlorophenyl)urea] | 1400 | 24 |  |  |
| CNC(=O)C1NCCc2cc(-n3nc(C(C)(C)C)cc3NC(=O)Nc3cccc(Cl)c3Cl)ccc21 (stereo not shown) [Example 204, 1-(3-t-butyl-1-(1-(methylcarbamoyl)-1,2,3,4-tetrahydroisoquinolin-6-yl)-1H-pyrazol-5-yl)-3-(2,3-dichlorophenyl)urea] | 99 |  | 9 |  |
| CC(C)(C)c1cc(NC(=O)Nc2cccc(Cl)c2Cl)n(-c2ccc3[nH]c(=O)ccc3c2)n1 [Example 155, 1-(3-t-butyl-1-(2-oxo-1,2-dihydroquinolin-6-yl)-1H-pyrazol-5-yl)-3-(2,3-dichlorophenyl)-urea] |  | 1.4 | 110 | 260 |
| CC(C)(C)c1cc(NC(=O)Nc2cc(F)cc(F)c2F)n(-c2cc(CNC(N)=O)c3ccccc3c2)n1 [Example 296] | 200 | 3 |  |  |
| CC(C)(C)c1cc(NC(=O)Nc2cccc(Cl)c2Cl)n(-c2ccc3c(c2)C(=O)CC3)n1 [Example 102, 1-[5-t-butyl-2-(3-oxo-indan-5-yl)-2H-pyrazol-3-yl]-3-(2,3-dichlorophenyl)urea] |  | 2.5 |  | 110 |
| CC(C)(C)c1cc(NC(=O)Nc2ccc(F)c(F)c2F)n(-c2ccc3ncccc3c2)n1 [Example 285, 1-(3-t-butyl-(quinolin-6-yl)-1H-pyrazol-5-yl)-3-(2,3,4-trifluorophenyl)urea] | 380 | 5.1 |  |  |
| CC(C)(C)c1cc(NC(=O)Nc2cccc(Cl)c2Cl)n(-c2ccc3c(c2)N(S(C)(=O)=O)CC3)n1 [Example 113, 1-(3-t-butyl-1-(1-(methylsulfonyl)indolin-6-yl)-1H-pyrazol-5-yl)-3-(2,3-dichlorophenyl)urea] |  | 3.3 |  | 190 |
| CC(C)(C)c1cc(NC(=O)Nc2ccc3c(c2)OCO3)n(-c2cccc(C#N)c2)n1 [Example 6, 1-(benzo[d][1,3]dioxol-5-yl)-3-(3-t-butyl-1-(3-cyanophenyl)-1H-pyrazol-5-yl)urea] |  | 180 |  | 3000 |
| CC(C)(C)c1cc(NC(=O)Nc2ccccc2)n(-c2ccc3ncccc3c2)n1 [Example 282, 1-[3-t-butyl-1-(quinolin-6-yl)-1H-pyrazol-5-yl]-3-phenylurea] | 2400 | 41 |  |  |
| CC(C)(C)c1cc(NC(=O)Nc2cc(F)cc(F)c2)n(-c2cc(CO)c3ccccc3c2)n1 [Example 59, 1-(3-t-butyl-1-(4-(hydroxymethyl)naphthalen-2-yl)-1H-pyrazol-5-yl)-3-(3,5-difluorophenyl)urea] |  | 8.7 |  | 79 |
| CC(C)(C)c1cc(NC(=O)Nc2cccc(Cl)c2Cl)n(-c2ccc3c(c2)CC(C(=O)O)NC3)n1 (stereo not shown) [Example 205] | 280 |  | 29 |  |
